In US10407467B2, “Polymyxin derivatives and their use in combination therapy together with different antibiotics” (priority 2013, dated 2019):
Counter-ions that a name gives are not always drawn. Like-named read-outs stand apart in the source and are kept apart here. Bridge positions count the residues as written; N and C are the ends. Square brackets hold non-standard residues; d marks the D form. Peptide text beside a SMILES is read from it. * marks the point of attachment. ξ: configuration not given here. Acetyl(2-(piperazin-1-yl)) = O=C(CN1CCNCC1)*; ξHexahydromandeloyl = O=C(C(O)C1CCCCC1)*; ξβ3hGly(cHex) = NC(CC(=O)*)C1CCCCC1; Thr(3ξ) = CC(O)[C@H](N)C(=O)O; Dab = NCC[C@H](N)C(=O)O; Dap = NC[C@H](N)C(=O)O; Inp = O=C(O)C1CCNCC1

Columns and labels:
Acinetobacter baumannii [1] = assay: MIC, compound in combination with a second agent (broth microdilution); type: cell-based; conditions: 1:1 (wt:wt) combination with Rifampicin, MIC = total drug concentration; for MIC A. baumannii CCUG57249: strain CCUG57249; for MIC A. baumannii NCTC 13423: strain NCTC 13423; for MIC A. baumannii NCTC 13424: strain NCTC 13424; for MIC A. baumannii ATCC BAA-747: strain ATCC BAA-747
In short: (§1)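 Equal-mass combos (compound in TFA or sulphate salt form plus second agent); direct colony suspension, 0.5 McFarland; duplicate wells; MIC expressed as summed concentration of both drugs.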

Pseudomonas aeruginosa [2] = assay: as above; type: cell-based; conditions: 1:1 (wt:wt) combination with Rifampicin, MIC = total drug concentration; for MIC P. aeruginosa ATCC 27853: strain ATCC 27853; for MIC P. aeruginosa ATCC CRM-9027: strain ATCC CRM-9027; for MIC P. aeruginosa ATCC-47: strain ATCC-47; for MIC P. aeruginosa CCUG 59626: strain CCUG 59626
In short: as §1

Escherichia coli [3] = assay: as above; type: cell-based; conditions: 1:1 (wt:wt) combination with Rifampicin, MIC = total drug concentration; for MIC E. coli ATCC25922: strain ATCC25922; for MIC E. coli NCTC9001: strain NCTC9001
In short: as §1

Klebsiella pneumoniae [4] = assay: as above; type: cell-based; conditions: 1:1 (wt:wt) combination with Rifampicin, MIC = total drug concentration; for MIC K. pneumoniae ATCC 4352: strain ATCC 4352; for MIC K. pneumoniae ATCC-BAA-2146: strain ATCC-BAA-2146; for MIC K. pneumoniae CCUG-59348: strain CCUG-59348
In short: as §1

Acinetobacter baumannii [5] = assay: MIC, sole activity (no second agent); type: cell-based; conditions: in the absence of Rifampicin; for MIC A. baumannii ATCC13424: strain ATCC13424; for MIC A. baumannii ATCCBAA-747: strain ATCCBAA-747; for MIC A. baumannii CCUG57249: strain CCUG 57249; for MIC A. baumannii NCTC 13423: strain NCTC13423
In short: (§2)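 Inoculum: direct colony suspension (18-24 h MH agar), 0.5 McFarland. Medium: cation-adjusted MHB. Up to 4 strains/species; reported relative to Polymyxin B.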

Pseudomonas aeruginosa [6] = assay: MIC, sole activity (no second agent); type: cell-based; conditions: in the absence of Rifampicin; for MIC P. aeruginosa ATCC 27853: strain ATCC27853; for MIC P. aeruginosa ATCC-47: strain ATCC-47; for MIC P. aeruginosa ATCCCRM-9027: strain ATCCCRM-9027; for MIC P. aeruginosa CCUG 59626: strain CCUG 59626
In short: as §2

Escherichia coli [7] = assay: MIC, sole activity (no second agent); type: cell-based; conditions: in the absence of Rifampicin; for MIC E. coli NCTC9001: strain NCTC9001; for MIC E. coli ATCC25922: strain ATCC25922
In short: as §2

Klebsiella pneumoniae [8] = assay: MIC, sole activity (no second agent); type: cell-based; conditions: in the absence of Rifampicin; for MIC K. pneumoniae ATCC 4352: strain ATCC 4352; for MIC K. pneumoniae ATCC-BAA2146: strain ATCC-BAA2146; for MIC K. pneumoniae CCUG-59348: strain CCUG-59348
In short: as §2

P. aeruginosa ATCC 27853 = conditions: for Log reduction from vehicle (CFU/g): ATCC 27853, in vivo, iv, 6 h

| Structure (SMILES) | MIC A. baumannii CCUG57249 (Acinetobacter baumannii [1]) | MIC A. baumannii NCTC 13423 (Acinetobacter baumannii [1]) | MIC A. baumannii NCTC 13424 (Acinetobacter baumannii [1]) | MIC P. aeruginosa ATCC 27853 (Pseudomonas aeruginosa [2]) | MIC P. aeruginosa ATCC CRM-9027 (Pseudomonas aeruginosa [2]) | MIC P. aeruginosa ATCC-47 (Pseudomonas aeruginosa [2]) | MIC P. aeruginosa CCUG 59626 (Pseudomonas aeruginosa [2]) | MIC E. coli ATCC25922 (Escherichia coli [3]) | MIC K. pneumoniae ATCC 4352 (Klebsiella pneumoniae [4]) | MIC K. pneumoniae ATCC-BAA-2146 (Klebsiella pneumoniae [4]) | MIC K. pneumoniae CCUG-59348 (Klebsiella pneumoniae [4]) | MIC A. baumannii ATCCBAA-747 (Acinetobacter baumannii [5]) | MIC A. baumannii NCTC 13423 (Acinetobacter baumannii [5]) | MIC P. aeruginosa ATCC-47 (Pseudomonas aeruginosa [6]) | MIC P. aeruginosa ATCCCRM-9027 (Pseudomonas aeruginosa [6]) | MIC P. aeruginosa CCUG 59626 (Pseudomonas aeruginosa [6]) | MIC E. coli NCTC9001 (Escherichia coli [7]) | MIC K. pneumoniae ATCC 4352 (Klebsiella pneumoniae [8]) | MIC K. pneumoniae ATCC-BAA2146 (Klebsiella pneumoniae [8]) | MIC K. pneumoniae CCUG-59348 (Klebsiella pneumoniae [8]) | also measured |
| --- | --- | --- | --- | --- | --- | --- | --- | --- | --- | --- | --- | --- | --- | --- | --- | --- | --- | --- | --- | --- | --- |
| CC(C)C[C@@H]1NC(=O)[C@@H](Cc2ccccc2)NC(=O)[C@H](CCN)NC(=O)[C@@H](NC(=O)[C@H](CN)NC(=O)[C@@H](NC(=O)C(O)C2CCCCC2)C(C)O)CCNC(=O)[C@H](C(C)O)NC(=O)[C@H](CCN)NC(=O)[C@H](CCN)NC1=O (stereo partly drawn) [Example 45, [2-cyclohexyl-2-hydroxyethanoyl]-L-Thr-L-Dap-polymyxin B heptapeptide, TFA salt] (ξHexahydromandeloyl-[Thr(3ξ)][Dap][Dab][Dab][dF]L[Dab][Dab][Thr(3ξ)]; lactam 3-C) | 0.25 micrograms/mL | 0.125 micrograms/mL | 0.125 micrograms/mL | 0.5 micrograms/mL | 0.5 micrograms/mL | 0.25 micrograms/mL | 0.25 micrograms/mL | ≤0.06 micrograms/mL | 0.25 micrograms/mL | 0.5 micrograms/mL | 1 micrograms/mL | 2 micrograms/mL | 1 micrograms/mL | 1 micrograms/mL | 0.125 micrograms/mL | 0.125 micrograms/mL | 16 micrograms/mL | 0.25 micrograms/mL | 2 micrograms/mL | 32 micrograms/mL | MIC A. baumannii ATCC13424 (Acinetobacter baumannii [5]): 1 micrograms/mL; MIC A. baumannii CCUG57249 (Acinetobacter baumannii [5]): 2 micrograms/mL; MIC P. aeruginosa ATCC 27853 (Pseudomonas aeruginosa [6]): 0.25 micrograms/mL |
| CC(C)C[C@@H]1NC(=O)[C@@H](Cc2ccccc2)NC(=O)[C@H](CCN)NC(=O)[C@@H](NC(=O)[C@@H](CO)NC(=O)[C@@H](NC(=O)CC(N)C2CCCCC2)[C@@H](C)O)CCNC(=O)[C@H](C(C)O)NC(=O)[C@H](CCN)NC(=O)[C@H](CCN)NC1=O (stereo partly drawn) [Example 48, [3-Amino-3-cyclohexyl-propionyl]-L-Thr-D-Ser-polymyxin B heptapeptide, TFA salt] ({ξβ3hGly(cHex)}-T[dS][Dab][Dab][dF]L[Dab][Dab][Thr(3ξ)]; lactam 3-C) | ≤0.06 micrograms/mL | 0.125 micrograms/mL | ≤0.06 micrograms/mL | 1 micrograms/mL | 1 micrograms/mL | 2 micrograms/mL | 1 micrograms/mL | 0.25 micrograms/mL | 0.25 micrograms/mL | 2 micrograms/mL | 2 micrograms/mL | 0.25 micrograms/mL | 0.25 micrograms/mL | 8 micrograms/mL | 0.5 micrograms/mL | 1 micrograms/mL | >32 micrograms/mL | 0.5 micrograms/mL | 4 micrograms/mL | >32 micrograms/mL | MIC A. baumannii ATCC BAA-747 (Acinetobacter baumannii [1]): 0.125 micrograms/mL; MIC E. coli NCTC9001 (Escherichia coli [3]): 0.5 micrograms/mL; MIC P. aeruginosa ATCC 27853 (Pseudomonas aeruginosa [6]): 4 micrograms/mL |
| CC(C)C[C@H]1NC(=O)[C@H](CCN)NC(=O)[C@@H](NC(=O)[C@H](CCN)NC(=O)[C@@H](NC(=O)CC(N)C2CCCCC2)C(C)O)CCNC(=O)[C@H](C(C)O)NC(=O)[C@H](CCN)NC(=O)[C@H](CCN)NC(=O)[C@H](C(C)O)NC1=O (stereo partly drawn) [Example 50, 3-Amino-3-cyclohexyl propanoyl-Thr-Dab-(cyclo)Dab*-Dab-DLeu-Thr-Dab-Dab-Thr*] ({ξβ3hGly(cHex)}-[Thr(3ξ)][Dab][Dab][Dab][dL][Thr(3ξ)][Dab][Dab][Thr(3ξ)]; lactam 3-C) | 0.125 micrograms/mL | 0.125 micrograms/mL | 0.125 micrograms/mL | 0.125 micrograms/mL | 0.125 micrograms/mL | 0.25 micrograms/mL | 0.25 micrograms/mL | ≤0.06 micrograms/mL | ≤0.06 micrograms/mL | 0.25 micrograms/mL | 8 micrograms/mL | 4 micrograms/mL | 2 micrograms/mL | 32 micrograms/mL | 0.5 micrograms/mL | 2 micrograms/mL | >32 micrograms/mL | 4 micrograms/mL | 16 micrograms/mL | >32 micrograms/mL | MIC A. baumannii ATCC BAA-747 (Acinetobacter baumannii [1]): 0.125 micrograms/mL; MIC E. coli NCTC9001 (Escherichia coli [3]): 0.125 micrograms/mL; MIC A. baumannii ATCC13424 (Acinetobacter baumannii [5]): 4 micrograms/mL; MIC A. baumannii CCUG57249 (Acinetobacter baumannii [5]): 4 micrograms/mL; MIC P. aeruginosa ATCC 27853 (Pseudomonas aeruginosa [6]): 32 micrograms/mL; MIC E. coli ATCC25922 (Escherichia coli [7]): >32 micrograms/mL |
| CC(C)C[C@@H]1NC(=O)[C@@H](Cc2ccccc2)NC(=O)[C@H](CCN)NC(=O)[C@@H](NC(=O)[C@H](CCCCN)NC(=O)[C@@H](NC(=O)C2CCNCC2)C(C)O)CCNC(=O)[C@H](C(C)O)NC(=O)[C@H](CCN)NC(=O)[C@H](CCN)NC1=O (stereo partly drawn) [Example 51, Piperidin-4-yl carbonyl-L-Thr-L-Lys-polymyxin B heptapeptide, TFA salt] (H-[Inp][Thr(3ξ)]K[Dab][Dab][dF]L[Dab][Dab][Thr(3ξ)]; lactam 4-C) | ≤0.06 micrograms/mL | 0.125 micrograms/mL |  | 0.25 micrograms/mL | 0.25 micrograms/mL | 0.5 micrograms/mL | 0.5 micrograms/mL | 0.125 micrograms/mL | 0.125 micrograms/mL | 1 micrograms/mL | 4 micrograms/mL | 4 micrograms/mL | 8 micrograms/mL | 32 micrograms/mL | 0.125 micrograms/mL | 0.25 micrograms/mL | >32 micrograms/mL | 2 micrograms/mL | >32 micrograms/mL | >32 micrograms/mL | MIC A. baumannii ATCC BAA-747 (Acinetobacter baumannii [1]): ≤0.06 micrograms/mL; MIC E. coli NCTC9001 (Escherichia coli [3]): 0.5 micrograms/mL; MIC A. baumannii ATCC13424 (Acinetobacter baumannii [5]): 4 micrograms/mL; MIC A. baumannii CCUG57249 (Acinetobacter baumannii [5]): 4 micrograms/mL; MIC E. coli ATCC25922 (Escherichia coli [7]): >32 micrograms/mL |
| CC(C)C[C@@H]1NC(=O)[C@@H](Cc2ccccc2)NC(=O)[C@H](CCN)NC(=O)[C@@H](NC(=O)[C@H](CCN)NC(=O)[C@@H](NC(=O)CN2CCNCC2)C(C)O)CCNC(=O)[C@H](C(C)O)NC(=O)[C@H](CCN)NC(=O)[C@H](CCN)NC1=O (stereo partly drawn) [Example 52, (1-piperazine) ethanoyl polymyxin B nonapeptide, trifluoroacetate salt] ({Acetyl(2-(piperazin-1-yl))}-[Thr(3ξ)][Dab][Dab][Dab][dF]L[Dab][Dab][Thr(3ξ)]; lactam 3-C) |  |  |  | 0.125 micrograms/mL |  |  | 0.125 micrograms/mL | ≤0.06 micrograms/mL | 0.125 micrograms/mL | 1 micrograms/mL | 8 micrograms/mL |  |  |  |  |  |  |  |  |  | effect on thigh burdens (P. aeruginosa ATCC 27853; 2 or 4 mg/kg IV three times at 1, 3.5 and 6 hours post infection): did not reduce thigh burdens significantly; Log reduction from vehicle (CFU/g) (P. aeruginosa ATCC 27853; 2 mg/kg): −0.14 log CFU/g; Log reduction from vehicle (CFU/g) (P. aeruginosa ATCC 27853; 4 mg/kg): −0.18 log CFU/g |
